The results in this text go back to patent publication US4284773A, “1,2,3,5-Tetrahydroimidazothienopyrimidin-2-ones” (Daiichi Seiyaku Co., Ltd., priority 1978, dated 1981).

Series [1] has as its system adenosine diphosphate (ADP) induced platelet aggregation. Description: in vitro inhibition of adenosine diphosphate (ADP) induced platelet aggregation, aggregometer method of Born, rat platelet rich plasma. Type of series: cell-based. Conditions: rat citrated platelet rich plasma, 50% inhibition. Here is the method:
(§1) The aggregometer method of Born [G. V. Born, Nature, 194, 927 (1962)] was used to assess the in vitro activity of the various compounds as to inhibition of adenosine diphosphate (ADP) and collagen (Coll) induced platelet aggregation. Platelet rich plasma (PRP) was separated by centrifugation from citrated (0.313%) rat blood.
(§2) A methanolic solution of the test compound was added to the PRP, then aggregation was induced by adding to the mixture of ADP solution containing CaCl2 or a collagen suspension prepared according to the method described by Ashida et al [S. Ashida and Y. Abiko, Thromb. Diath. Haemorrh., 30, 528 (1975)], and the optical density of the resulting mixture was determined. […] A dose response curve was drawn from the results obtained above and the effective concentration giving a 50% inhibition (EC50) was calculated.

In series [2] the test system is collagen (Coll) induced platelet aggregation. Description: in vitro inhibition of collagen (Coll) induced platelet aggregation, aggregometer method of Born, rat platelet rich plasma. As to conditions: rat citrated platelet rich plasma, 50% inhibition. Type of series: cell-based. Here is the method:
as §1, §2

Series [3] concerns Platelet aggregation induced by collagen suspension. Description: ex vivo inhibition of collagen-induced platelet aggregation after oral administration in rat. Conditions: 50 mg/kg (p.o) in rat, blood collected 2 hours after oral administration, vs vehicle control rats. As to the method: Blood samples were collected 2 hours after oral administration of the
compound to be tested or vehicle alone. Platelet rich plasmas were
obtained by centrifugation of the blood. Platelet aggregation was induced
by adding collagen suspension to the platelet rich plasma and was compare
with that observed with the platelet rich plasma from the control rats

Series [4] in a line: blood pressure of normal rat after oral administration. Type of series: in vivo. As to conditions: 50 mg/kg (p.o) in rat; 5-6 hours after oral administration. As to the method: The blood pressure of normal rat was measured at 5-6 hours after the oral administration at a dose of 50 mg/kg.

The term EC50 denotes the midpoint of the concentration-response curve. A low value points to a more potent agent.

Turning to `Cc1csc2c1CN1CC(=O)NC1=N2` [Compound 4], the EC50 was found to be 19 µM in series [1] and 15 µM in series [2].
`O=C1CN2Cc3c(sc4c3CCCC4)N=C2N1` [Compound 8, 1,2,3,5,6,7,8,9-octahydroimidazo[1,2-a][1]benzothieno[2,3-d]pyrimidin-2-one]: the “Inhibition of Platelet Aggregation ex vivo % Inhibition” value in series [3] was 57%. For the same compound, the results for the EC50 in series [1] and in series [2] were 5 µM and 0.1 µM, respectively. Further, the “Blood Pressure % Reduction” value in series [4] was 8 ± 2%.
Take `CCCc1c(CC)sc2c1CN1CC(=O)NC1=N2` [Compound 15]: in series [3], the “Inhibition of Platelet Aggregation ex vivo % Inhibition” value came to 90%. The EC50 in series [1] turned out to be 3 µM; in series [2] it was 2.2 µM.
As for `O=C1CN2Cc3c(sc4c3CCCCC4)N=C2N1` [Compound 9], the results for the EC50 in series [1] and in series [2] were 20 µM and 15 µM, respectively.
For the compound `Cc1scc2c1CN1CC(=O)NC1=N2` [Compound 14], in series [3], the “Inhibition of Platelet Aggregation ex vivo % Inhibition” value is 32%. The EC50 in series [1] was determined as 17 µM; in series [2], 3.5 µM.
As to `Cc1cccc2c1CN1CC(=O)NC1=N2` [BL-3459, 6-methyl-1,2,3,5-tetrahydroimidazo[2,1-b]quinazolin-2-one, reference compound], the “Inhibition of Platelet Aggregation ex vivo % Inhibition” value in series [3] stood at 57%. Moreover, the EC50 in series [1] is 5 µM; in series [2] it was 0.8 µM. Also, the “Blood Pressure % Reduction” value in series [4] is recorded as 35 + 3%.
Regarding `CCCCCc1sc2c(c1C)CN1CC(=O)NC1=N2` [Compound 17], the EC50 in series [1] stood at 2 µM; in series [2], 0.19 µM.
For `CC1C(=O)NC2=Nc3sc4c(c3CN21)CCCC4` (stereo not shown) [Compound 18], the EC50 in series [1] is 48 µM; in series [2], 0.6 µM.
For `CCCc1sc2c(c1C)CN1CC(=O)NC1=N2` [Compound 16], the “Inhibition of Platelet Aggregation ex vivo % Inhibition” value in series [3] amounted to 60%. The values for the EC50 in series [1] and in series [2] were 0.58 µM and 0.08 µM, respectively.
With `O=C1CN2Cc3sccc3N=C2N1` [Compound 11], the 50% effective concentration (EC50) was 85 µM in series [1] and 10 µM in series [2].
`Cc1sc2c(c1C)CN1CC(=O)NC1=N2` [Compound 1, 6,7-dimethyl-1,2,3,5-tetrahydroimidazo[1,2-a]thieno[2,3-d]pyrimidin-2-one]: in series [3], the “Inhibition of Platelet Aggregation ex vivo % Inhibition” value is 84%. For the same compound, the EC50 came to 5 µM in series [1] and 1 µM in series [2]. The “Blood Pressure % Reduction” value in series [4] stood at 5 ± 3%.
`Cc1c(Cl)sc2c1CN1CC(=O)NC1=N2` [Compound 6]: the “Inhibition of Platelet Aggregation ex vivo % Inhibition” value in series [3] came to 24%. Moreover, the EC50 in series [1] came out at 4.2 µM; in series [2] it was 1.9 µM.
